Measured values reported in the supplement of paper PMC10307832.

What was measured:
Experiment in all cases: relative viability (nuclei count vs DMSO), 5 days (fraction); higher = more cells survive
[1] = compound: C[As](C)SC[C@H](NC(=O)CC[C@H](N)C(=O)O)C(=O)NCC(=O)O [Darinaparsin] + N=C(N)NC(=N)NCCc1ccccc1 [Phenformin] (partner 250 µM)
In short: (§1)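 Lung cancer cell lines were pin-tool dosed in 1536-well plates on the day after seeding, with either a lone drug or a fixed anchor-drug dose plus five library-drug doses (not always all listed) in √10 steps. Nuclei were counted on 4× images after 5 days. Relative viability is the ratio of treated-well to vehicle-well nuclei counts, with each value a median of duplicate plates.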

QS11 + Vorinostat = compound: C1CC2=C(C1)C=C(C=C2)OC3=NC(=C4C(=N3)N(C=N4)CC5=CC=C(C=C5)C6=CC=CC=C6)N[C@@H](CC7=CC=CC=C7)CO [QS11] + O=C(CCCCCCC(=O)Nc1ccccc1)NO [Vorinostat] (partner 1 µM)
In short: as §1

AZ628 + Linsitinib = compound: CC1=C(C=C(C=C1)NC(=O)C2=CC(=CC=C2)C(C)(C)C#N)NC3=CC4=C(C=C3)N=CN(C4=O)C [AZ628] + C[C@]1(O)C[C@@H](c2nc(-c3ccc4ccc(-c5ccccc5)nc4c3)c3c(N)nccn32)C1 [Linsitinib] (partner 1 µM)
In short: as §1

QS11 + Tozasertib = compound: C1CC2=C(C1)C=C(C=C2)OC3=NC(=C4C(=N3)N(C=N4)CC5=CC=C(C=C5)C6=CC=CC=C6)N[C@@H](CC7=CC=CC=C7)CO [QS11] + Cc1cc(Nc2cc(N3CCN(C)CC3)nc(Sc3ccc(NC(=O)C4CC4)cc3)n2)n[nH]1 [Tozasertib] (partner 0.1 µM)
In short: as §1

Cell Line | relative viability ([1]; first compound 0.08 µM) | relative viability ([1]; first compound 0.8 µM) | relative viability ([1]; first compound 2.53 µM) | relative viability ([1]; first compound 8 µM) | relative viability (QS11 + Vorinostat; first compound 0.08 µM) | relative viability (QS11 + Vorinostat; first compound 0.253 µM) | relative viability (QS11 + Vorinostat; first compound 0.8 µM) | relative viability (QS11 + Vorinostat; first compound 2.53 µM) | relative viability (QS11 + Vorinostat; first compound 8 µM) | relative viability (AZ628 + Linsitinib; first compound 0.08 µM) | relative viability (AZ628 + Linsitinib; first compound 0.253 µM) | relative viability (AZ628 + Linsitinib; first compound 0.8 µM) | relative viability (AZ628 + Linsitinib; first compound 2.53 µM) | relative viability (AZ628 + Linsitinib; first compound 8 µM) | relative viability (QS11 + Tozasertib; first compound 0.08 µM) | relative viability (QS11 + Tozasertib; first compound 0.253 µM) | relative viability (QS11 + Tozasertib; first compound 0.8 µM) | relative viability (QS11 + Tozasertib; first compound 2.53 µM) | relative viability (QS11 + Tozasertib; first compound 8 µM)
LXF-289 | 0.556 | 0.523 | 0.471 | 0.556 | 0.772 | 0.828 | 0.724 | 0.719 | 0.637 | 1.02 | 0.949 | 0.932 | 0.92 | 0.589 | 0.159 | 0.197 | 0.147 | 0.213 | 0.253
NCI-H647 | 0.62 | 0.479 | 0.474 | 0.696 | 0.623 | 0.801 | 0.62 | 0.387 | 0.356 | 1.36 | 1.27 | 1.07 | 1.19 | 1.05 | 0.287 | 0.268 | 0.291 | 0.323 | 0.197
NCI-H1651 | 0.351 | 0.302 | 0.298 | 0.357 | 0.555 | 0.518 | 0.527 | 0.571 | 0.564 | 1.16 | 1.08 | 1.12 | 1.05 | 0.989 | 0.819 | 0.698 | 0.678 | 0.548 | 0.507
NCI-H838 | 0.596 | 0.508 | 0.486 | 0.638 | 0.735 | 0.642 | 0.666 | 0.774 | 0.755 | 0.995 | 0.977 | 1.11 | 0.896 | 0.883 | 0.293 | 0.276 | 0.232 | 0.224 | 0.209
NCI-H661 | 0.261 | 0.25 | 0.299 | 0.275 | 0.786 | 0.805 | 0.632 | 0.804 | 0.672 | 0.474 | 0.523 | 0.49 | 0.517 | 0.443 | 0.36 | 0.375 | 0.299 | 0.353 | 0.343
NCI-H1734 | 0.464 | 0.409 | 0.363 | 0.424 | 0.79 | 0.82 | 0.779 | 0.792 | 0.672 | 0.853 | 0.794 | 0.804 | 0.759 | 0.496 | 0.25 | 0.273 | 0.28 | 0.246 | 0.316
HCC-827 | 0.41 | 0.417 | 0.331 | 0.435 | 0.749 | 0.927 | 0.672 | 0.944 | 0.899 | 0.979 | 1.01 | 1.01 | 0.973 | 0.918 | 0.389 | 0.416 | 0.315 | 0.433 | 0.457
201T | 0.478 | 0.451 | 0.404 | 0.5 | 0.937 | 0.995 | 0.797 | 0.866 | 0.668 | 1.06 | 0.978 | 1.07 | 1 | 0.998 | 0.956 | 1.03 | 0.694 | 0.892 | 0.584
